Test results reported in PubChem BioAssay (NCI).
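1) Cells in 96-well plates. 2) Compound, 48 h, 5 concentrations. 3) Linear interpolation between surrounding doses. 4) Unreached endpoint = highest concentration. Here, GI50 denotes the concentration required for 50% inhibition of growth. Definition used: TGI = concentration required for complete inhibition of growth.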

Columns and labels:
Assay in all cases: growth of human tumour cells (NCI), 48 h
SN12C renal = tested on: SN12C renal
SF-268 CNS = tested on: SF-268 CNS
RXF 393 renal = tested on: RXF 393 renal
HOP-92 NSCLC = tested on: HOP-92 NSCLC
OVCAR-8 ovarian = tested on: OVCAR-8 ovarian
TK-10 renal = tested on: TK-10 renal
786-0 renal = tested on: 786-0 renal
HOP-62 NSCLC = tested on: HOP-62 NSCLC
SNB-75 CNS = tested on: SNB-75 CNS
MCF7 breast = tested on: MCF7 breast
EKVX NSCLC = tested on: EKVX NSCLC
HL-60(TB) leukemia = tested on: HL-60(TB) leukemia
SF-539 CNS = tested on: SF-539 CNS
HT29 colon = tested on: HT29 colon
COLO 205 colon = tested on: COLO 205 colon
HS 578T breast = tested on: HS 578T breast
K-562 leukemia = tested on: K-562 leukemia
MOLT-4 leukemia = tested on: MOLT-4 leukemia
ACHN renal = tested on: ACHN renal
SK-MEL-2 melanoma = tested on: SK-MEL-2 melanoma
U251 CNS = tested on: U251 CNS
SK-MEL-28 melanoma = tested on: SK-MEL-28 melanoma
SF-295 CNS = tested on: SF-295 CNS
UACC-62 melanoma = tested on: UACC-62 melanoma
NCI-H460 lung = tested on: NCI-H460 lung
NCI/ADR-RES ovarian = tested on: NCI/ADR-RES ovarian
MALME-3M melanoma = tested on: MALME-3M melanoma
HCC-2998 colon = tested on: HCC-2998 colon
OVCAR-4 ovarian = tested on: OVCAR-4 ovarian
UACC-257 melanoma = tested on: UACC-257 melanoma
IGROV1 ovarian = tested on: IGROV1 ovarian
SK-OV-3 ovarian = tested on: SK-OV-3 ovarian
UO-31 renal = tested on: UO-31 renal
MDA-MB-231 breast = tested on: MDA-MB-231 breast
SR leukemia = tested on: SR leukemia
NCI-H522 lung = tested on: NCI-H522 lung
MDA-N = tested on: MDA-N
HCT-116 colon = tested on: HCT-116 colon
CAKI-1 renal = tested on: CAKI-1 renal
NCI-H226 lung = tested on: NCI-H226 lung
PC-3 prostate = tested on: PC-3 prostate
KM12 colon = tested on: KM12 colon
T-47D breast = tested on: T-47D breast
SK-MEL-5 melanoma = tested on: SK-MEL-5 melanoma
OVCAR-3 ovarian = tested on: OVCAR-3 ovarian
A498 renal = tested on: A498 renal
BT-549 breast = tested on: BT-549 breast
HCT-15 colon = tested on: HCT-15 colon
A549 NSCLC = tested on: A549 NSCLC
SNB-19 CNS = tested on: SNB-19 CNS
LOX IMVI melanoma = tested on: LOX IMVI melanoma
MDA-MB-435 = tested on: MDA-MB-435
OVCAR-5 ovarian = tested on: OVCAR-5 ovarian
DU-145 prostate = tested on: DU-145 prostate
NCI-H23 lung = tested on: NCI-H23 lung
M14 melanoma = tested on: M14 melanoma
CCRF-CEM leukemia = tested on: CCRF-CEM leukemia
SW-620 colon = tested on: SW-620 colon
RPMI-8226 leukemia = tested on: RPMI-8226 leukemia

O=C1c2c(Cl)c(Cl)c(Cl)c(Cl)c2C(=O)N1CCN(c1c(Cl)ssc1=O)c1c(Cl)ssc1=O
TGI (SN12C renal): 47.7 µM | TGI (SF-268 CNS): > 100 µM | TGI (RXF 393 renal): 34.4 µM | TGI (HOP-92 NSCLC): 35.5 µM | TGI (OVCAR-8 ovarian): 44.6 µM | TGI (TK-10 renal): 33.5 µM | TGI (786-0 renal): 32.8 µM | TGI (HOP-62 NSCLC): > 100 µM | TGI (SNB-75 CNS): > 100 µM | TGI (MCF7 breast): 44.8 µM | TGI (EKVX NSCLC): 88.6 µM | TGI (HL-60(TB) leukemia): > 100 µM | TGI (SF-539 CNS): 35.4 µM | TGI (HT29 colon): 35.6 µM | TGI (COLO 205 colon): 35 µM | TGI (HS 578T breast): > 100 µM | TGI (K-562 leukemia): 53.4 µM | TGI (MOLT-4 leukemia): 37.7 µM | TGI (ACHN renal): 32.9 µM | TGI (SK-MEL-2 melanoma): 54.3 µM | TGI (U251 CNS): > 100 µM | TGI (SK-MEL-28 melanoma): > 100 µM | TGI (SF-295 CNS): > 100 µM | TGI (UACC-62 melanoma): 44.4 µM | TGI (NCI-H460 lung): > 100 µM | TGI (NCI/ADR-RES ovarian): > 100 µM | TGI (MALME-3M melanoma): 53.6 µM | TGI (HCC-2998 colon): 58.8 µM | TGI (OVCAR-4 ovarian): 40.2 µM | TGI (UACC-257 melanoma): 31.5 µM | TGI (IGROV1 ovarian): > 100 µM | TGI (SK-OV-3 ovarian): > 100 µM | TGI (UO-31 renal): 32.3 µM | TGI (MDA-MB-231 breast): > 100 µM | TGI (SR leukemia): 44.7 µM | TGI (NCI-H522 lung): 57.8 µM | TGI (MDA-N): 33.3 µM | TGI (HCT-116 colon): 29.9 µM | TGI (CAKI-1 renal): 34.7 µM | TGI (NCI-H226 lung): > 100 µM | TGI (PC-3 prostate): 56.8 µM | TGI (KM12 colon): > 100 µM | TGI (T-47D breast): 44.5 µM | TGI (SK-MEL-5 melanoma): > 100 µM | TGI (OVCAR-3 ovarian): 36.6 µM | TGI (A498 renal): > 100 µM | TGI (BT-549 breast): > 100 µM | TGI (HCT-15 colon): 41.1 µM | TGI (A549 NSCLC): > 100 µM | TGI (SNB-19 CNS): > 100 µM | TGI (LOX IMVI melanoma): 48.5 µM | TGI (MDA-MB-435): 45.4 µM | TGI (OVCAR-5 ovarian): > 100 µM | TGI (DU-145 prostate): 36.7 µM | TGI (NCI-H23 lung): > 100 µM | TGI (M14 melanoma): 46.2 µM | TGI (CCRF-CEM leukemia): 72 µM | TGI (SW-620 colon): 61.9 µM

CC(=O)NCCc1c2c(c3nccc4c3c1Nc1ccccc1-4)OCS2
GI50 (SN12C renal): 0.741 µM | TGI (SN12C renal): 4.79 µM | GI50 (SF-268 CNS): 1.56 µM | TGI (SF-268 CNS): 11.4 µM | GI50 (RXF 393 renal): 3.02 µM | TGI (RXF 393 renal): 13.5 µM | GI50 (HOP-92 NSCLC): 2.02 µM | TGI (HOP-92 NSCLC): 21 µM | GI50 (OVCAR-8 ovarian): 2.09 µM | TGI (OVCAR-8 ovarian): > 33.1 µM | GI50 (TK-10 renal): 5.56 µM | TGI (TK-10 renal): 18.9 µM | GI50 (786-0 renal): 3.66 µM | TGI (786-0 renal): 28.9 µM | GI50 (HOP-62 NSCLC): 3.6 µM | TGI (HOP-62 NSCLC): 34.1 µM | GI50 (SNB-75 CNS): 15.3 µM | TGI (SNB-75 CNS): 70.4 µM | GI50 (MCF7 breast): 0.801 µM | TGI (MCF7 breast): 8.47 µM | GI50 (EKVX NSCLC): 2.05 µM | TGI (EKVX NSCLC): 16.1 µM | GI50 (HL-60(TB) leukemia): 2.97 µM | TGI (HL-60(TB) leukemia): 14.3 µM | GI50 (SF-539 CNS): 6.63 µM | TGI (SF-539 CNS): 25.1 µM | GI50 (HT29 colon): 0.968 µM | TGI (HT29 colon): 4.77 µM | GI50 (COLO 205 colon): 2.38 µM | TGI (COLO 205 colon): 15.6 µM | GI50 (HS 578T breast): 8.19 µM | TGI (HS 578T breast): 37 µM | GI50 (K-562 leukemia): 2.93 µM | TGI (K-562 leukemia): 56.2 µM | GI50 (MOLT-4 leukemia): 2.38 µM | TGI (MOLT-4 leukemia): > 100 µM | GI50 (ACHN renal): 0.199 µM | TGI (ACHN renal): 3.27 µM | GI50 (SK-MEL-2 melanoma): 3 µM | TGI (SK-MEL-2 melanoma): 13.9 µM | GI50 (U251 CNS): 1.72 µM | TGI (U251 CNS): 15.7 µM | GI50 (SK-MEL-28 melanoma): 3.45 µM | TGI (SK-MEL-28 melanoma): 15.7 µM | GI50 (SF-295 CNS): 1.87 µM | TGI (SF-295 CNS): 15.1 µM | GI50 (UACC-62 melanoma): 5.5 µM | TGI (UACC-62 melanoma): 19.3 µM | GI50 (NCI-H460 lung): 0.498 µM | TGI (NCI-H460 lung): 9.98 µM | GI50 (NCI/ADR-RES ovarian): 4.83 µM | TGI (NCI/ADR-RES ovarian): > 38.2 µM | GI50 (MALME-3M melanoma): 7.28 µM | TGI (MALME-3M melanoma): 24.7 µM | GI50 (HCC-2998 colon): 45.8 µM | TGI (HCC-2998 colon): > 100 µM | GI50 (OVCAR-4 ovarian): 1.92 µM | TGI (OVCAR-4 ovarian): 6.02 µM | GI50 (UACC-257 melanoma): 13.8 µM | TGI (UACC-257 melanoma): 27 µM | GI50 (IGROV1 ovarian): 0.976 µM | TGI (IGROV1 ovarian): 5.61 µM | GI50 (SK-OV-3 ovarian): 1.52 µM | TGI (SK-OV-3 ovarian): 18.8 µM | GI50 (UO-31 renal): 1.05 µM | TGI (UO-31 renal): 6.37 µM | GI50 (MDA-MB-231 breast): 0.594 µM | TGI (MDA-MB-231 breast): 6.61 µM | GI50 (SR leukemia): 0.0354 µM | TGI (SR leukemia): > 100 µM | GI50 (NCI-H522 lung): 0.936 µM | TGI (NCI-H522 lung): 3.11 µM | GI50 (MDA-N): 1.45 µM | TGI (MDA-N): 15.5 µM | GI50 (RPMI-8226 leukemia): 0.895 µM | GI50 (HCT-116 colon): 2.22 µM | GI50 (CAKI-1 renal): 0.249 µM | TGI (CAKI-1 renal): 8.59 µM | GI50 (NCI-H226 lung): 11.6 µM | TGI (NCI-H226 lung): 26.5 µM | GI50 (PC-3 prostate): 2.95 µM | TGI (PC-3 prostate): 9.33 µM | GI50 (KM12 colon): 2.39 µM | TGI (KM12 colon): 10.8 µM | GI50 (T-47D breast): 2.39 µM | TGI (T-47D breast): 12.8 µM | GI50 (SK-MEL-5 melanoma): 2.99 µM | TGI (SK-MEL-5 melanoma): 14.5 µM | GI50 (OVCAR-3 ovarian): 1.48 µM | TGI (OVCAR-3 ovarian): 5.67 µM | GI50 (A498 renal): 0.698 µM | TGI (A498 renal): 19.1 µM | GI50 (BT-549 breast): 6.13 µM | TGI (BT-549 breast): 19.7 µM | GI50 (HCT-15 colon): 1.26 µM | TGI (HCT-15 colon): 8.77 µM | GI50 (A549 NSCLC): 1.29 µM | TGI (A549 NSCLC): 11.3 µM | GI50 (SNB-19 CNS): 3.17 µM | TGI (SNB-19 CNS): 18.8 µM | GI50 (LOX IMVI melanoma): 1.26 µM | TGI (LOX IMVI melanoma): 3.85 µM | GI50 (MDA-MB-435): 3.88 µM | TGI (MDA-MB-435): 18.9 µM | GI50 (OVCAR-5 ovarian): 5.21 µM | TGI (OVCAR-5 ovarian): 21.3 µM | GI50 (DU-145 prostate): 1.06 µM | TGI (DU-145 prostate): 2.48 µM | GI50 (NCI-H23 lung): 1.52 µM | TGI (NCI-H23 lung): 12.3 µM | GI50 (M14 melanoma): 1 µM | TGI (M14 melanoma): 4.57 µM | GI50 (CCRF-CEM leukemia): 1.28 µM | GI50 (SW-620 colon): 0.226 µM | TGI (SW-620 colon): 8.15 µM
